Assay results as given in US5668265A, “Bi-directional oligonucleotides that bind thrombin” (Becton Dickinson and Company, priority 1996, dated 1997).

Legend:
human α thrombin = assay: Competitive binding assay on BIAcore (SPR) against immobilized consensus aptamer; details: for Kd: 80 nM human α thrombin, 25° C., pH 7.4, competition with immobilized consensus aptamer, read-out: Apparent Kd
Description: Competitive binding assays were used to determine the thrombin binding affinity of the various bi-directional oligonucleotides relative to the affinity of the known thrombin aptamer ^5' GGTTGGTGTGGTTGG^3' (SEQ ID NO:4) (hereafter called the "consensus" aptamer; Bock, L. C. et al, Nature 355, 564 (1992)). The assays were performed on a BIAcore™ biosensor instrument (Pharmacia Biosensor, Uppsala Sweden) by means of Surface Plasmon Resonance (SPR) detection of thrombin bound to consensus aptamer immobilized as described in U.S. patent application Ser. No. 0802,383, now abandoned, filed Aug. 5, 1993 incorporated herein by reference. Competition experiments were conducted at 25° C. by pre-incubating 80 nM human α thrombin for 30 minutes with various concentrations of the bi-directional oligonucleotide to be measured, in a buffer composed of 20 mM Tris-Acetate, 140 mM NaCl, 5 mM KCl, 1 mM CaCl2, 1 mM MgCl2 (pH 7.4). This solution was then passed over the surface containing immobilized consensus aptamer at a flow rate of 3 μL per minute for 10 minutes. The steady state response was measured as a function of bi-directional oligonucleotide concentration. The competition data were analyzed assuming that thrombin and the solution phase oligonucleotide bind monovalently and that thrombin molecules bound to a solution phase oligonucleotide are prohibited from binding to the immobilized consensus aptamer.
In this analysis, the steady state response in the presence of oligonucleotide is proportional to the surface concentration of bound thrombin, and apparent equilibrium dissociation constants (Kd 's) were determined from the variation in SPR response as a function of bi-directional oligonucleotide concentration. (Data were fit to eqn 31 of Pisarchick, M. L. and Thompson, N. L., Biophys J. 58, 1235, to yield the Kd values. In this analysis, it was assumed that the concentration nucleic acid ligand free in solution is equal to the total nucleic acid ligand concentration). The values determined are shown below (SEQ ID NO:4): […]

[1] = system: 3'-exonuclease (Phosphodiestase I; C. adamanteus Venon); format: in vitro ADME; details: 0.005 units exonuclease, 37° C., pH 8.8; for Approximate Half-Life: estimated by visual inspection of autoradiogram
Description: It is expected that the 3'--3' linked oligonucleotides will show similar resistance to 3'-exonucleases found in
The various bi-directional nucleic acid ligands to be tested were first labeled with radioactive (^32 p) phosphate as follows:
200 pmol of each oligonucleotide was incubated at 37° C. for 30 minutes in 20 μl of a solution containing 3.0 mM Tricine (pH 7.6), 50 mM TRIS-HCl (pH8), 10 mM MgCl2, 5 mM DTT, 1.0 μM γ-^32 P-ATP (3000 Ci/mmol, 10 mCi/mL), 10 units T4 polynucleotide kinase (New England Biolabs). This labeling reaction was then terminated by heating the mixture at 95° C. for 3 minutes.
To test the resistance of the ^32 P-labeled oligonucleotides to the 3' exonuclease, the following reaction mixtures were assembled: Each bi-directional nucleic acid ligand (25 pmole) was dissolved in 100 μl containing 55 mM Tris-HCl, 55 mM NaCl, 7.5 mM MgCl2 (all at pH8.8). To this mixture 0.005 units of the exonuclease (Phosphodiestase I; C. adamanteus Venon; Pharmacia Biotech, Inc.) was added and the sample was mixed and incubated at 37° C. Five μL aliquots of each reaction were removed at 3, 10, 30, 60, and 100 minutes. The reactions were quenched by placing the aliquots into 25 μL solutions containing 50% (w/v) urea, 20 mM Na2 EDTA, and 0.05% bromophenol blue/zylene cylanol and heating the sample to 90° C. for 2 minutes. The reaction products were analyzed by electrophoretic separation on a denaturing polyacrylamide gel and subsequent autoradiagraphy of the gel.
The half-lives of the various bi-directional nucleic acid ligands under these conditions were estimated by visual inspection of autoradiogram (SEQ ID NO:4): […]

bovine thrombin = assay: Clot time assay in platelet-poor porcine plasma with added thrombin; format: biochemical; details: room temperature, FIG. 2
Description: PPP was prepared by separating cells from […] by centrifugation of whole citrated porcine blood (Environmental Diagnostics Inc.). Approximately 0.5 ml of PPP was added to 12×75 mm polystyrene test tubes (FALCON, Becton Dickinson) and equilibrated to room temperature in a water bath for 15 minutes. Following equilibration, 25 μl of 250 μg/ml bovine thrombin (Sigma) in saline was added along with varying amounts of bi-directional nucleic acid ligand compounds prepared in Example 3 (specifically Compound #5 and Compound #9) in saline and sufficient saline diluent to bring the total volume to 0.6 ml. At this time 50 μl of 0.4M CaCl2 was added to initiate coagulation and the tubes were quickly capped. Tube contents were mixed on a laboratory inverting mixer and time of clotting noted for each tube type.

5'-GGTTGGT-3' (DNA, backbone not given here) [a single copy of this sequence, reference compound]
thrombin affinity (in words) (human α thrombin; thrombin): does not have high affinity for thrombin

^3' GGTTGGTT^5' -p-^5' TTGGTTGG^3' [Compound 4]
Kd (human α thrombin): 25 nM

^5' GGTTGGTGTGGTTGG^3' [Compound 10, reference compound]
Kd (human α thrombin): 6 nM
time to complete degradation by the 3'-exonuclease [1]: less than 3 minutes
Approximate Half-Life [1]: < 3 min

^5' GGTTGGTG^3' -p-^3' TGGTTGG^5' [Compound 1]
Kd (human α thrombin): 224 nM

^5' GGTTGGTTG^3' -p-^3' TTGGTTGG^5' [Compound 3]
Kd (human α thrombin): 11 nM
Approximate Half-Life [1]: > 100 min

^5' GGTTGGTT^3' (DNA, backbone not given here) [Compound 12, single oligonucleotide segment, control, reference compound]
Kd (human α thrombin): 1500 nM

^5' GGTTGGTT^3' -L1 -^3' TTGGTTGG^5' (DNA, backbone not given here; two strands joined 3'-3' by hexaethylene glycol phosphodiester linker, further chemistry not fully specified) [Compound 6, 3'-3' bi-directional oligonucleotide linked through hexaethylene glycol phosphodiester]
Kd (human α thrombin): 10 nM
thrombin affinity (in words) (human α thrombin; thrombin): high affinity for thrombin
inhibition of exogenous thrombin in plasma (clot time) (bovine thrombin): inhibits thrombin in porcine plasma

^5' GGTTGGTT^3' -p-^3' TTGGTTGG^5' [Compound 2]
Kd (human α thrombin): 312 nM

^5' GGTTGGT^3' -L1 -^3' TGGTTGG^5' (DNA, backbone not given here; two strands joined 3'-3' through linker L1, further chemistry not fully specified) [Compound 5, 3'-3' bi-directional oligonucleotide linked through hexaethylene glycol phosphodiester]
Kd (human α thrombin): 9 nM
Ka (thrombin binding affinity) (human α thrombin; thrombin): > 10^7 M^-1
inhibition of exogenous thrombin in plasma (clot time) (bovine thrombin): inhibition of exogenous thrombin in plasma
Approximate Half-Life [1]: 30 min
